Values of other authors in patent publication US20250333447A1, “CHIMERIC SMALL MOLECULES FOR LABELING PROTEINS WITH IMMUNOGENIC MOIETIES AND METHODS OF USE THEREOF” (The Brigham and Women's Hospital, Inc., priority 2022, published 2025).

Key:
PSMA = PSMA (Homo sapiens, UniProt Q04609)
HSP90 = conditions: cell free assay

Chain of PSMA (Q04609 whole entry, species assumed): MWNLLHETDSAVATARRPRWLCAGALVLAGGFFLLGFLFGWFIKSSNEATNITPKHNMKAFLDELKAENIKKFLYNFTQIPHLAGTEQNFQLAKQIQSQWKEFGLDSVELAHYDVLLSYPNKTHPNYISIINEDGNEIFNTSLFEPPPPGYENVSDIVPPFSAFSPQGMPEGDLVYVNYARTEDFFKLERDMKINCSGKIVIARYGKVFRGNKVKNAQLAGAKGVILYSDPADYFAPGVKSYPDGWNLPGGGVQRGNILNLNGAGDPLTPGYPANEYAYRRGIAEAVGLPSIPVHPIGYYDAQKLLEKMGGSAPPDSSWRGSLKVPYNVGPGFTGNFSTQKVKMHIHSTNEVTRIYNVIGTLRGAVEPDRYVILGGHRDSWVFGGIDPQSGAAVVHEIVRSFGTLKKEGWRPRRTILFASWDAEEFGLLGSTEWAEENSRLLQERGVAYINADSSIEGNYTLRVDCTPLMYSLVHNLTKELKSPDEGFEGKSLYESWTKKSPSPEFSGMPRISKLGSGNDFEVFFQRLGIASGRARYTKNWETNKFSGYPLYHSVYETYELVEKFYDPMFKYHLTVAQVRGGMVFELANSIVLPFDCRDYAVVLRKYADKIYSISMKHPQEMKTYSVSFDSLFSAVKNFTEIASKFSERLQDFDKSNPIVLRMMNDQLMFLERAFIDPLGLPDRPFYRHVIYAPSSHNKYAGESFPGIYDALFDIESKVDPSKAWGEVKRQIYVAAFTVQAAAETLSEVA

Row | Ki (PSMA) [nM] | Structure (SMILES) | IC50 (HSP90) [nM]
1 | 8 | O=C(O)CC[C@H](NC(=O)N[C@@H](CCC(=O)O)C(=O)O)C(=O)O [DUPA] | 
2 |  | CO[C@H]1/C=C\C=C(/C)C(=O)NC2=CC(=O)C(NCCN(C)C)=C(C[C@@H](C)C[C@H](OC)[C@H](O)[C@@H](C)/C=C(\C)[C@@H]1OC(N)=O)C2=O [Alvespimycin] | 62
